From the NIST ThermoML archive (doi:10.1016/j.jct.2013.03.005)
Where “and” joins values, the source holds several entries; their conditions need not be identical. Identical values can stand only once.

Key:
[1] = Molar enthalpy of transition or fusion; details: Crystal; DSC
[2] = for mass density: 298.15 K, 101.33 kPa, mass/volume ratio of a pellet; for Normal melting temperature: DTA
[3] = molar enthalpy of vaporization or sublimation; details: 298.15 K; Crystal; Static calorimetry

OCC1c2ccccc2-c2ccccc21 [9-fluorenemethanol]
Details	Molar enthalpy of transition or fusion [kcal/mol]
[1]	6.67

[2], Crystal
Details	Normal melting temperature [°C]	mass density [kg/m3]
–	103.92	1084

[2]
Details	vapor or sublimation pressure
337.18 K, Crystal, Calculated from knudsen effusion weight loss	9.2e-05 kPa and 9e-05 kPa
339.17 K, Crystal, Calculated from knudsen effusion weight loss	0.000119 kPa and 0.000117 kPa and 0.000115 kPa
341.1 K, Crystal, Calculated from knudsen effusion weight loss	0.00015 kPa and 0.000147 kPa
343.17 K, Crystal, Calculated from knudsen effusion weight loss	0.00019 kPa and 0.000187 kPa and 0.000197 kPa
345.21 K, Crystal, Calculated from knudsen effusion weight loss	0.000247 kPa and 0.000239 kPa and 0.000243 kPa
347.13 K, Crystal, Calculated from knudsen effusion weight loss	0.000306 kPa and 0.000303 kPa and 0.000302 kPa
349.16 K, Crystal, Calculated from knudsen effusion weight loss	0.00038 kPa and 0.000381 kPa and 0.00039 kPa
351.22 K, Crystal, Calculated from knudsen effusion weight loss	0.000493 kPa and 0.000476 kPa and 0.000488 kPa
353.14 K, Crystal, Calculated from knudsen effusion weight loss	0.000611 kPa and 0.000602 kPa and 0.000607 kPa
355.17 K, Crystal, Calculated from knudsen effusion weight loss	0.000748 kPa and 0.000739 kPa and 0.000772 kPa
357.16 K, Crystal, Calculated from knudsen effusion weight loss	0.00095 kPa and 0.000955 kPa and 0.000923 kPa
359.1 K, Crystal, Calculated from knudsen effusion weight loss	0.00118 kPa and 0.001184 kPa and 0.001169 kPa
362.69 K, Liquid, Closed cell (Static) method	0.00242 kPa
364.67 K, Liquid, Closed cell (Static) method	0.00285 kPa
366.66 K, Liquid, Closed cell (Static) method	0.00333 kPa
368.63 K, Liquid, Closed cell (Static) method	0.00391 kPa
370.62 K, Liquid, Closed cell (Static) method	0.00456 kPa
372.6 K, Liquid, Closed cell (Static) method	0.00529 kPa
374.57 K, Liquid, Closed cell (Static) method	0.00615 kPa
376.56 K, Liquid, Closed cell (Static) method	0.00711 kPa
378.53 K, Liquid, Closed cell (Static) method	0.00817 kPa
380.52 K, Liquid, Closed cell (Static) method	0.00947 kPa
382.5 K, Liquid, Closed cell (Static) method	0.01089 kPa
384.49 K, Liquid, Closed cell (Static) method	0.01253 kPa
386.47 K, Liquid, Closed cell (Static) method	0.0143 kPa
388.43 K, Liquid, Closed cell (Static) method	0.01639 kPa
390.43 K, Liquid, Closed cell (Static) method	0.0188 kPa
392.39 K, Liquid, Closed cell (Static) method	0.02137 kPa
394.37 K, Liquid, Closed cell (Static) method	0.02432 kPa
396.35 K, Liquid, Closed cell (Static) method	0.02764 kPa
398.32 K, Liquid, Closed cell (Static) method	0.03131 kPa
400.3 K, Liquid, Closed cell (Static) method	0.03556 kPa

O=C(O)C1c2ccccc2-c2ccccc21 [9H-fluorene-9-carboxylic acid]
Details	Molar enthalpy of transition or fusion [kcal/mol]	molar enthalpy [kcal/mol]
[1]	7.23	–
[3]	–	30.4

[2], Crystal
Details	Normal melting temperature [°C]	mass density [kg/m3]
–	230.68	1164

[2], Crystal, Calculated from knudsen effusion weight loss
Details	vapor or sublimation pressure [kPa]
384.16 K	0.000139
386.13 K	0.000171
388.15 K	0.000211
392.14 K	0.000307
394.15 K	0.000378
396.15 K	0.000474
398.15 K	0.000558
400.13 K	0.000689
402.14 K	0.000811
404.15 K	0.000994
406.16 K	0.001182
